“And” between values parts separate entries of the source, which are not always exact repeats. Identical values can stand only once. Inconclusive results and toxic doses are left out.
Tested on: BDF1 mice, P388 leukemia ip, median survival T/C
Assay: NCI In Vivo Anticancer Drug Screen. Data for tumor model P388 Leukemia (intraperitoneal) in B6D2F1 (BDF1) mice
Settings: endpoint: median survival time, higher = longer survival
In short: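 Transplantable tumour in mice; compound vs vehicle dosing; survival scored; ratio of treated to control reported.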

[1] = dose: 100.0 mg/kg/injection, schedule: Q01DX009 (ip), vehicle: Klucel (hydroxypropylcellulose) (HPC)
[2] = dose: 12.5 mg/kg/injection, schedule: Q01DX009 (ip), vehicle: Klucel (hydroxypropylcellulose) (HPC)
[3] = dose: 100.0 mg/kg/injection, schedule: Q04DX003 (ip), vehicle: saline with Tween-80
[4] = dose: 200.0 mg/kg/injection, schedule: Q04DX003 (ip), vehicle: saline with Tween-80
[5] = dose: 400.0 mg/kg/injection, schedule: Q04DX003 (ip), vehicle: saline with Tween-80
[6] = dose: 50.0 mg/kg/injection, schedule: Q01DX009 (ip), vehicle: saline with Tween-80
[7] = dose: 100.0 mg/kg/injection, schedule: Q01DX009 (ip), vehicle: saline with Tween-80
[8] = dose: 200.0 mg/kg/injection, schedule: Q01DX009 (ip), vehicle: saline with Tween-80

CCOC(=O)CN1C=C(C(=O)c2cc3ccccc3n2S(=O)(=O)c2ccccc2)CCC1
T/C (dose: 0.05 mg/kg/injection, schedule: Q01DX009 (ip), vehicle: saline): 104 % of control
T/C (dose: 0.06 mg/kg/injection, schedule: Q01DX009 (ip), vehicle: saline): 105 % of control and 115 % of control
T/C (dose: 0.1 mg/kg/injection, schedule: Q01DX009 (ip), vehicle: saline): 106 % of control
T/C (dose: 0.12 mg/kg/injection, schedule: Q01DX009 (ip), vehicle: saline): 150 % of control
T/C (dose: 0.13 mg/kg/injection, schedule: Q01DX009 (ip), vehicle: saline): 88 % of control
T/C (dose: 0.2 mg/kg/injection, schedule: Q01DX009 (ip), vehicle: saline): 114 % of control
T/C (dose: 0.25 mg/kg/injection, schedule: Q01DX009 (ip), vehicle: saline): 105 % of control and 110 % of control
T/C (dose: 0.5 mg/kg/injection, schedule: Q01DX009 (ip), vehicle: saline): 115 % of control
T/C (dose: 1.0 mg/kg/injection, schedule: Q01DX009 (ip), vehicle: saline): 100 % of control
T/C (dose: 2.0 mg/kg/injection, schedule: Q01DX009 (ip), vehicle: saline): 99 % of control and 105 % of control
T/C (dose: 4.0 mg/kg/injection, schedule: Q01DX009 (ip), vehicle: saline): 121 % of control
T/C (dose: 8.0 mg/kg/injection, schedule: Q01DX009 (ip), vehicle: saline): 104 % of control
T/C (dose: 16.0 mg/kg/injection, schedule: Q01DX009 (ip), vehicle: saline): 109 % of control
T/C (dose: 32.0 mg/kg/injection, schedule: Q01DX009 (ip), vehicle: saline): 106 % of control

C[C@H]1CC2=CC(=O)CC[C@]2(C)[C@H]2CC[C@@]3(C)[C@@H](CC[C@]3(C)O)[C@H]12
T/C [1]: 100 % of control
T/C (dose: 100.0 mg/kg/injection, schedule: Q04DX003 (ip), vehicle: Klucel (hydroxypropylcellulose) (HPC)): 100 % of control
T/C (dose: 200.0 mg/kg/injection, schedule: Q01DX009 (ip), vehicle: Klucel (hydroxypropylcellulose) (HPC)): 105 % of control
T/C (dose: 200.0 mg/kg/injection, schedule: Q04DX003 (ip), vehicle: Klucel (hydroxypropylcellulose) (HPC)): 95 % of control
T/C (dose: 400.0 mg/kg/injection, schedule: Q04DX003 (ip), vehicle: Klucel (hydroxypropylcellulose) (HPC)): 100 % of control

Nc1nc(CCl)nc(Nc2ccccc2)n1
T/C [2]: 100 % of control
T/C (dose: 25.0 mg/kg/injection, schedule: Q01DX009 (ip), vehicle: Klucel (hydroxypropylcellulose) (HPC)): 98 % of control
T/C (dose: 50.0 mg/kg/injection, schedule: Q01DX009 (ip), vehicle: Klucel (hydroxypropylcellulose) (HPC)): 102 % of control
T/C [1]: 100 % of control

CCOC(=O)c1c(OC(C)=O)cc2c(c1OC(C)=O)-c1ccccc1CC2
T/C [3]: 90 % of control
T/C [4]: 97 % of control
T/C [5]: 99 % of control

NC1CC2C=CCC(C1)C2 (stereo not given)
T/C (dose: 37.5 mg/kg/injection, schedule: Q01DX001 (ip), vehicle: saline): 95 % of control
T/C (dose: 75.0 mg/kg/injection, schedule: Q01DX001 (ip), vehicle: saline): 100 % of control
T/C (dose: 150.0 mg/kg/injection, schedule: Q01DX001 (ip), vehicle: saline): 100 % of control

Cc1ccc(NC(=O)Nc2ccccc2Cl)cc1Cl
T/C (dose: 100.0 mg/kg/injection, schedule: Q04DX003 (ip), vehicle: saline): 104 % of control
T/C (dose: 200.0 mg/kg/injection, schedule: Q04DX003 (ip), vehicle: saline): 95 % of control
T/C (dose: 400.0 mg/kg/injection, schedule: Q04DX003 (ip), vehicle: saline): 95 % of control

O=C(/C=C/c1cccc(O)c1)c1ccccc1
T/C [6]: 91 % of control
T/C [7]: 99 % of control
T/C [8]: 101 % of control

CC(C)(O)C1C2OC(=O)C1C1(O)CC3OC34C(=O)OC2C14C (stereo not given)
T/C (dose: 12.5 mg/kg/injection, schedule: Q04DX003 (ip), vehicle: saline with Tween-80): 109 % of control
T/C (dose: 25.0 mg/kg/injection, schedule: Q04DX003 (ip), vehicle: saline with Tween-80): 95 % of control

COc1ccc(C=Nc2cccc3ccccc23)cc1
T/C (dose: 100.0 mg/kg/injection, schedule: Q01DX001 (ip), vehicle: saline sonified): 100 % of control
T/C (dose: 200.0 mg/kg/injection, schedule: Q01DX001 (ip), vehicle: saline sonified): 100 % of control
T/C (dose: 400.0 mg/kg/injection, schedule: Q01DX001 (ip), vehicle: saline sonified): 104 % of control

O=C(Nc1ccc(Cl)c(Cl)c1)ON1CCCCC1
T/C [6]: 100 % of control
T/C [7]: 100 % of control
T/C [8]: 106 % of control

N=C(N)c1ccc(/C=C/c2ccc(C(=N)N)cc2)cc1
T/C [2]: 118 % of control
T/C (dose: 16.5 mg/kg/injection, schedule: Q01DX009 (ip), vehicle: Klucel (hydroxypropylcellulose) (HPC)): 116 % of control and 118 % of control
T/C (dose: 37.5 mg/kg/injection, schedule: Q01DX009 (ip), vehicle: Klucel (hydroxypropylcellulose) (HPC)): 150 % of control

CN1C(=O)C(=O)c2ccccc21
T/C [6]: 94 % of control
T/C [7]: 97 % of control
T/C [8]: 93 % of control

CCOC(=O)c1ccccc1S(=O)(=O)c1ccccc1C(=O)OCC
T/C [6]: 106 % of control
T/C [7]: 100 % of control
T/C [8]: 112 % of control

CSc1ccc(OC(=O)Nc2ccc(C)c([N+](=O)[O-])c2)cc1C
T/C [3]: 90 % of control
T/C [4]: 95 % of control
T/C [5]: 104 % of control

CC(C)N=Cc1ccccc1O.CC(C)N=Cc1ccccc1O.[Ni]
T/C (dose: 6.25 mg/kg/injection, schedule: Q04DX003 (ip), vehicle: saline sonified): 105 % of control
T/C (dose: 12.5 mg/kg/injection, schedule: Q04DX003 (ip), vehicle: saline sonified): 105 % of control
T/C (dose: 25.0 mg/kg/injection, schedule: Q04DX003 (ip), vehicle: saline sonified): 115 % of control

CSc1cc(C)c(O)c(CO)c1
T/C (dose: 100.0 mg/kg/injection, schedule: Q01DX009 (ip), vehicle: other): 100 % of control
T/C (dose: 200.0 mg/kg/injection, schedule: Q01DX009 (ip), vehicle: other): 95 % of control
T/C (dose: 400.0 mg/kg/injection, schedule: Q01DX009 (ip), vehicle: other): 95 % of control

COc1cccc2c1CCC1C2CC=C2CC3(CCC21C)OCCO3 (stereo not given)
T/C (dose: 50.0 mg/kg/injection, schedule: Q04DX003 (sc), vehicle: steriod suspending solution): 100 % of control
T/C (dose: 100.0 mg/kg/injection, schedule: Q04DX003 (sc), vehicle: steriod suspending solution): 104 % of control
T/C (dose: 200.0 mg/kg/injection, schedule: Q04DX003 (sc), vehicle: steriod suspending solution): 91 % of control
T/C (dose: 400.0 mg/kg/injection, schedule: Q04DX003 (sc), vehicle: steriod suspending solution): 100 % of control

COC(=O)c1ccc(OP(=O)(N(C)C)N(C)C)cc1
T/C (dose: 12.5 mg/kg/injection, schedule: Q01DX009 (ip), vehicle: saline with Tween-80): 117 % of control
T/C (dose: 25.0 mg/kg/injection, schedule: Q01DX009 (ip), vehicle: saline with Tween-80): 115 % of control

COC(=O)C1=C(\N2CCOCC2)CCCCC/C=C\1C(=O)OC
T/C [6]: 100 % of control
T/C [8]: 100 % of control

FC(Cl)(Cl)c1nc2nc(Cl)c(Cl)nc2[nH]1
T/C (dose: 3.12 mg/kg/injection, schedule: Q01DX009 (ip), vehicle: water): 104 % of control
T/C (dose: 6.25 mg/kg/injection, schedule: Q01DX009 (ip), vehicle: water): 107 % of control
T/C (dose: 6.25 mg/kg/injection, schedule: Q04DX003 (ip), vehicle: water): 116 % of control
T/C (dose: 12.5 mg/kg/injection, schedule: Q01DX009 (ip), vehicle: water): 100 % of control
T/C (dose: 12.5 mg/kg/injection, schedule: Q04DX003 (ip), vehicle: water): 116 % of control
T/C (dose: 25.0 mg/kg/injection, schedule: Q01DX009 (ip), vehicle: water): 108 % of control
T/C (dose: 25.0 mg/kg/injection, schedule: Q04DX003 (ip), vehicle: water): 102 % of control
T/C (dose: 50.0 mg/kg/injection, schedule: Q01DX009 (ip), vehicle: water): 118 % of control
T/C (dose: 50.0 mg/kg/injection, schedule: Q04DX003 (ip), vehicle: water): 116 % of control
T/C (dose: 100.0 mg/kg/injection, schedule: Q01DX009 (ip), vehicle: water): 101 % of control
T/C (dose: 100.0 mg/kg/injection, schedule: Q04DX003 (ip), vehicle: water): 102 % of control

ClC(Cl)=C1OCCO1
T/C [6]: 104 % of control
T/C [7]: 98 % of control
T/C [8]: 100 % of control

COC(=O)c1ccc2oc(=O)cc(C)c2c1O
T/C [3]: 104 % of control
T/C [4]: 100 % of control
T/C [5]: 95 % of control

ClCC(Cl)CN1CCCCC1 (stereo not given)
T/C (dose: 12.5 mg/kg/injection, schedule: Q01DX009 (ip), vehicle: saline): 90 % of control
T/C (dose: 25.0 mg/kg/injection, schedule: Q01DX009 (ip), vehicle: saline): 86 % of control
T/C (dose: 50.0 mg/kg/injection, schedule: Q01DX009 (ip), vehicle: saline): 104 % of control

C=C1C(=O)CCC1/C=C\C (stereo not given)
T/C (dose: 50.0 mg/kg/injection, schedule: Q01DX005 (ip), vehicle: saline with Tween-80): 97 % of control

From PubChem BioAssay AID328 (DTP/NCI, 2004)
